Where two headings read alike, the source gives them in different places.
Molecular target: T1, human glucocorticoid receptor protein (GR) (Homo sapiens, UniProt P04150)
T1 construct: made in house; host or cells: Spodoptera frugiperda Sf21 insect cells (baculovirus)
T1 sequence (P04150 1-777): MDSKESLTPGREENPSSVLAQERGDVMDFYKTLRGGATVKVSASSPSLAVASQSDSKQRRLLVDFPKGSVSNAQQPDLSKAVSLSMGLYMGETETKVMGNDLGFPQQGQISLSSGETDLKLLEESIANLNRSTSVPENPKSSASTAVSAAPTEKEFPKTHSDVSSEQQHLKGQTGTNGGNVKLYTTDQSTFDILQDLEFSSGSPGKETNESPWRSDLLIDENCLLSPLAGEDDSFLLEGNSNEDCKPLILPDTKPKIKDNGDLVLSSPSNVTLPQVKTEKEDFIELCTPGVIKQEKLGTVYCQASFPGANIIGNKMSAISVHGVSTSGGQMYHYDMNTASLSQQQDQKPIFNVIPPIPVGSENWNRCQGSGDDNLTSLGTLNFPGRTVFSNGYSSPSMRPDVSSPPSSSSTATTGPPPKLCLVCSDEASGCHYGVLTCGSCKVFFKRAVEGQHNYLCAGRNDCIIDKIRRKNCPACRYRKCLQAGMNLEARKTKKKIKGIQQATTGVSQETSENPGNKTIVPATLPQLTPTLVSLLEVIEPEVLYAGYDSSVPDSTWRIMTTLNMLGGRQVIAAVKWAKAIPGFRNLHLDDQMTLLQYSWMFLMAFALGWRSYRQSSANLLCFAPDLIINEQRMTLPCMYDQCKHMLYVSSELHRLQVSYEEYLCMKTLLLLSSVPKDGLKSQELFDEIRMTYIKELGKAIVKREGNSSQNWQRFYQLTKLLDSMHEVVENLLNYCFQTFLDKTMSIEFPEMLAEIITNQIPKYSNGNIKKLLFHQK
Test: Glucocorticoid receptor binding assay ([3H]dexamethasone competition, GR lysate)
Procedure: A baculovirus expression plasmid containing cDNA encoding the human glucocorticoid receptor protein (GR) was prepared using standard techniques. […] That expression plasmid was co-transfected together with wild type Autographa californica multiple nuclear polyhedrosis virus DNA into Spodopter frugiperda-21 (Sf-21) cells to generate recombinant virus containing GR cDNA. See e.g., O'Reilly, D. R., Miller, L. K., Luckow, V. A., Regulation of expression of a baculovirus ecdysteroid UDP glucosyltransferase gene. […] That recombinant virus containing GR cDNA was collected.
A suspension culture of uninfected Sf21 cells was grown to a density of 1.2×10^6 cells/ml and then infected with the recombinant virus containing GR cDNA at a multiplicity of infection of 2. Those infected Sf21 cells were incubated for 48 hours and then collected by centrifugation at 1000×g for 10 minutes at 4° C. The resulting cell pellets were resuspended in lysis buffer (50 mM Potassium Phosphate buffer, pH 7.0, 10 mM Monothioglycerol, 5 mM DTT, 20 mM Sodium Molybdate, 1 mM PMSF, 1 μg/mL aprotinin, and 10 μg/mL leupeptin) and incubated for 15 minutes on ice. Those resuspended cell pellets were homogenized using a Dounce homogenizer and a B pestle. A volume of 2 M KCl was added to the homogenized cell pellets to a final concentration of 0.4 M. The resulting GR lysates were centrifuged at 100,000×g for 60 min at 4° C. and stored for use in binding assays.
Binding assay samples were prepared in separate mini-tubes in a 96-well format at 4° C. Each binding assay sample was prepared in a volume of 250 μL of Assay Buffer (10% glycerol, 25 mM sodium phosphate, 10 mM potassium fluoride, 10 mM sodium molybdate, 0.25 mM CHAPS, 2 mM DTT and 1 mM EDTA, (adjusted to pH 7.5)) containing 50 μg of GR lysate; 2-4 nM of [^3H]dexamethasone at 84 Ci/mmol; and either a reference compound or a test compound. […] Each reference compound and test compound was assayed at varying concentrations, ranging from 0 to 10^−5 M. Each concentration of each reference compound and each test compound was assayed in triplicate. The assay samples were incubated for 16 hours at 4° C.
The assay samples were then centrifuged and the supernatants were discarded. The resulting pellets were washed twice with assay buffer lacking DTT. Radioactivity in counts per minute (CPM) of each washed pellet was determined by liquid scintillation counter (MicroBeta™, Wallach).
Specific binding for a particular sample was calculated using the equation: (Sample CPM)−(Average Non-specific CPM)
Average Non-specific CPM was defined as the amount of radioactivity from samples containing an excess (i.e. 1000 nM) of unlabeled dexamethasone. […] Ki values were determined using the Cheng-Prusoff equation using a previously determined Kd value for dexamethasone: Ki=IC50/(1+[L]/Kd)
[L]=concentration of labeled dexamethasone
Kd=dissociation constant of labeled dexamethasone

[1] = competition with 2-4 nM [3H]dexamethasone, 16 hours at 4° C., Cheng-Prusoff, read-out: Ki

SMILES | Ki [nM] | Ki [1] [nM]
COc1c(O)ccc2c1-c1ccc3c(c1/C(=C/c1cccc(C(F)(F)F)c1)O2)C(C)=CC(C)(C)N3 [Compound 11, (Z)-5-(3′-trifluoromethylbenzylidene)-1,2-dihydro-9-hydroxy-10-methoxy-2,2,4-trimethyl-5H-chromeno[3,4-f]quinoline] | 1 to 2 | 
COc1c(O)ccc2c1-c1ccc3c(c1/C(=C/c1sccc1CO)O2)C(C)=CC(C)(C)N3 [Compound 157, (Z)-5-(2′-(3′-Hydroxymethylthienylmethylidene))1,2-dihydro-9-hydroxy-10-methoxy-2,2,4-trimethyl-5H-chromeno[3,4-f]quinoline] |  | < 1
CCN(CC)C(=O)c1ccccc1/C=C1\Oc2ccc(O)c(OC)c2-c2ccc3c(c21)C(C)=CC(C)(C)N3 [Compound 75, (Z)-5-(2′-diethylaminocarbonylbenzylidene)-1,2-dihydro-9-hydroxy-10-methoxy-2,2,4-trimethyl-5H-chromeno[3,4-f]quinoline] |  | < 1
COc1c(O)ccc2c1-c1ccc3c(c1/C(=C/c1cccc(OCCF)c1)O2)C(C)=CC(C)(C)N3 [Compound 86, (Z)-5-(3′-(2″-fluoroethoxy)benzylidene)-1,2-dihydro-9-hydroxy-10-methoxy-2,2,4-trimethyl-5H-chromeno[3,4-f]quinoline] |  | 1 to 2
COc1c(O)ccc2c1-c1ccc3c(c1/C(=C/c1sccc1CN(C)C)O2)C(C)=CC(C)(C)N3 [Compound 166, (Z)-5-(2′-(3′-(Dimethylaminomethyl)thienylmethylidene))1,2-dihydro-9-hydroxy-10-methoxy-2,2,4-trimethyl-5H-chromeno[3,4-f]quinoline] |  | 2 to 3
COc1c(O)ccc2c1-c1ccc3c(c1/C(=C/c1cccc(OC(F)(F)F)c1)O2)C(C)=CC(C)(C)N3 [Compound 22, (Z)-5-(3′-trifluoromethoxybenzylidene)-1,2-dihydro-9-hydroxy-10-methoxy-2,2,4-trimethyl-5H-chromeno[3,4-f]quinoline] | > 3 | 
COc1c(O)ccc2c1-c1ccc3c(c1/C(=C/c1ccccc1F)O2)C(C)=CC(C)(C)N3 [Compound 12, (Z)-5-(2′-fluorobenzylidene)-1,2-dihydro-9-hydroxy-10-methoxy-2,2,4-trimethyl-5H-chromeno[3,4-f]quinoline] | < 1 | 
C=CCO/N=C(\C)c1ccsc1/C=C1\Oc2ccc(O)c(OC)c2-c2ccc3c(c21)C(C)=CC(C)(C)N3 [Compound 178, (Z)-5-(2′-(3′-((E)-1″-Allyloxyiminoethyl)thienylmethylidene))1,2-dihydro-9-hydroxy-10-methoxy-2,2,4-trimethyl-5H-chromeno[3,4-f]quinoline] |  | 1 to 2
COc1c(O)ccc2c1-c1ccc3c(c1/C(=C/c1cccc(C)c1C(=O)N1CCCC1)O2)C(C)=CC(C)(C)N3 [Compound 154, (Z)-5-(3′-Methyl-2′-(pyrrolidinecarbonyl)benzylidene)1,2-dihydro-9-hydroxy-10-methoxy-2,2,4-trimethyl-5H-chromeno[3,4-f]quinoline] |  | > 3
COc1c(O)ccc2c1-c1ccc3c(c1/C(=C/c1sccc1C(=O)N(C)C)O2)C(C)=CC(C)(C)N3 [Compound 132, (Z)-5-(2′-(3′-(dimethylaminocarbonyl)thienylmethylidene))-1,2-dihydro-9-hydroxy-10-methoxy-2,2,4-trimethyl-5H-chromeno[3,4-f]quinoline] |  | 1 to 2
CC#CCOCc1ccsc1/C=C1\Oc2ccc(O)c(OC)c2-c2ccc3c(c21)C(C)=CC(C)(C)N3 [Compound 237, (Z)-5-(2′-(3′-(But-2″-ynloxymethyl)thienylmethylidene))1,2-dihydro-9-hydroxy-10-methoxy-2,2,4-trimethyl-5H-chromeno[3,4-f]quinoline] |  | 1 to 2
COc1c(O)ccc2c1-c1ccc3c(c1/C(=C/c1sccc1C(O)C(F)(F)F)O2)C(C)=CC(C)(C)N3 (racemic) [Compound 202, (±)-(Z)-5-(2′-(3′-(1″-Hydroxy-2″,2″,2″-trifluoroethyl)thienylmethylidene))1,2-dihydro-9-hydroxy-10-methoxy-2,2,4-trimethyl-5H-chromeno[3,4-f]quinoline] |  | 1 to 2
COc1c(O)ccc2c1-c1ccc3c(c1/C(=C/c1oc(C)cc1C(=O)N1CCCCC1)O2)C(C)=CC(C)(C)N3 [Compound 151, (Z)-5-(2′-(5′-Methyl-3′-(piperidinecarbonyl)furanylmethylidene))1,2-dihydro-9-hydroxy-10-methoxy-2,2,4-trimethyl-5H-chromeno[3,4-f]quinoline] |  | 1 to 2
COCCN(CCOC)C(=O)c1ccsc1/C=C1\Oc2ccc(O)c(OC)c2-c2ccc3c(c21)C(C)=CC(C)(C)N3 [Compound 138, (Z)-5-(2′-(3′-(di(methoxyethyl)aminocarbonyl)thienylmethylidene))-1,2-dihydro-9-hydroxy-10-methoxy-2,2,4-trimethyl-5H-chromeno[3,4-f]quinoline] |  | 1 to 2
COc1c(O)ccc2c1-c1ccc3c(c1/C(=C/c1cccc4ccccc14)O2)C(C)=CC(C)(C)N3 [Compound 111, (Z)-5-(1′-naphthylmethylidene)-1,2-dihydro-9-hydroxy-10-methoxy-2,2,4-trimethyl-5H-chromeno[3,4-f]quinoline] |  | > 3
COc1c(O)ccc2c1-c1ccc3c(c1/C(=C/c1ccccc1C(=O)N1CCCC1)O2)C(C)=CC(C)(C)N3 [Compound 90, (Z)-5-(2′-(pyrrolidinecarbonyl)benzylidene)-1,2-dihydro-9-hydroxy-10-methoxy-2,2,4-trimethyl-5H-chromeno[3,4-f]quinoline] |  | < 1
COc1c(O)ccc2c1-c1ccc3c(c1/C(=C/c1cccc(C(F)(F)F)c1F)O2)C(C)=CC(C)(C)N3 [Compound 29, (Z)-5-(2′-fluoro-3′-trifluoromethylbenzylidene)-1,2-dihydro-9-hydroxy-10-methoxy-2,2,4-trimethyl-5H-chromeno[3,4-f]quinoline] |  | 2 to 3
COc1cccc(/C=C2\Oc3ccc(O)c(OC)c3-c3ccc4c(c32)C(C)=CC(C)(C)N4)c1 [Compound 15, (Z)-5-(3′-methoxybenzylidene)-1,2-dihydro-9-hydroxy-10-methoxy-2,2,4-trimethyl-5H-chromeno[3,4-f]quinoline] |  | < 1
COc1c(O)ccc2c1-c1ccc3c(c1/C(=C/c1ccccc1C#N)O2)C(C)=CC(C)(C)N3 [Compound 107, (Z)-5-(2′-cyanobenzylidene)-1,2-dihydro-9-hydroxy-10-methoxy-2,2,4-trimethyl-5H-chromeno[3,4-f]quinoline] |  | < 1
COc1c(O)ccc2c1-c1ccc3c(c1/C(=C/c1cc(Cl)ccc1Cl)O2)C(C)=CC(C)(C)N3 [Compound 14, (Z)-5-(2′,5′-dichlorobenzylidene)-1,2-dihydro-9-hydroxy-10-methoxy-2,2,4-trimethyl-5H-chromeno[3,4-f]quinoline] |  | 2 to 3
COc1c(O)ccc2c1-c1ccc3c(c1/C(=C/c1sccc1C(=O)c1ccsc1)O2)C(C)=CC(C)(C)N3 [Compound 215, (Z)-5-(2′-(3′-(Thien-3″-ylcarbonyl)thienylmethylidene))1,2-dihydro-9-hydroxy-10-methoxy-2,2,4-trimethyl-5H-chromeno[3,4-f]quinoline] |  | 1 to 2
